Here are results for 34 molecules from US8445503B2, “Inhibitors of polo-like kinase” (Elan Pharmaceuticals, Inc., priority 2009, dated 2013).

Holding throughout (assay type): biochemical
One test addresses T1, GST-PLK3 (Homo sapiens, UniProt Q9H4B4).
T1 construct: purchased CarnaBio
Nature of the test: PLK TR-FRET peptide assay, PLK3. Conditions: read-out: Plk3 IC50. On the technique in general: Time-resolved FRET reads energy transfer from a long-lived donor to a nearby acceptor.

A further test has as its target T2, GST-PLK2 (Homo sapiens, UniProt Q9NYY3).
T2 construct: purchased CarnaBio
In words: PLK TR-FRET peptide assay, PLK2. Conditions: for IC50: PLK TR-FRET peptide assay, GST-PLK2, read-out: Plk2 IC50; for PLK2 activity relative to the opposite enantiomer / other isomer: comparison of resolved enantiomers, used to assign absolute configuration.

For another test, the target named is GST-PLK1 (Homo sapiens, UniProt P53350). Nature of the test: PLK TR-FRET peptide assay, PLK1. Conditions: read-out: Plk1 IC50.
The mark [1] stands for this setting: PLK TR-FRET peptide assay, GST-PLK3.

Molecules are shown by their SMILES. Read-outs that look alike come from different tables or passages of the source.

T2 sequence (Q9NYY3 whole entry): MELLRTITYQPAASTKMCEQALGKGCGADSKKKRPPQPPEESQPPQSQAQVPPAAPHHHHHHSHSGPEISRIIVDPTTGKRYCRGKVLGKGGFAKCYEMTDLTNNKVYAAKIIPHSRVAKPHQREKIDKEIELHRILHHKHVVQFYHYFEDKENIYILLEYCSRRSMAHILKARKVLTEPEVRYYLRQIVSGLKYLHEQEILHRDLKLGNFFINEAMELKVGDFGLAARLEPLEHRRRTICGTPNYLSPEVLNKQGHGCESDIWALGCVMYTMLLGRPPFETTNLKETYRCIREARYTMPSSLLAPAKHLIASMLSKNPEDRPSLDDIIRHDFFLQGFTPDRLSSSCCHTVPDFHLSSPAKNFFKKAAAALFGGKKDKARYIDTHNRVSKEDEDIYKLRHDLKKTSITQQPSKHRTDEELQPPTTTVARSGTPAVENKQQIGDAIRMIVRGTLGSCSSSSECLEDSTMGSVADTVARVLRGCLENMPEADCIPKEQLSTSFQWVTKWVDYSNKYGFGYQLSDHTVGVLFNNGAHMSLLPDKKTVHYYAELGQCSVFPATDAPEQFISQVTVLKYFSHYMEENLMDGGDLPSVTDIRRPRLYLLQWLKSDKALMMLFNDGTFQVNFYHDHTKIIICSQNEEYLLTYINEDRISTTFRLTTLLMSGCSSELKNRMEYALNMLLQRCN
T1 sequence (Q9H4B4 whole entry): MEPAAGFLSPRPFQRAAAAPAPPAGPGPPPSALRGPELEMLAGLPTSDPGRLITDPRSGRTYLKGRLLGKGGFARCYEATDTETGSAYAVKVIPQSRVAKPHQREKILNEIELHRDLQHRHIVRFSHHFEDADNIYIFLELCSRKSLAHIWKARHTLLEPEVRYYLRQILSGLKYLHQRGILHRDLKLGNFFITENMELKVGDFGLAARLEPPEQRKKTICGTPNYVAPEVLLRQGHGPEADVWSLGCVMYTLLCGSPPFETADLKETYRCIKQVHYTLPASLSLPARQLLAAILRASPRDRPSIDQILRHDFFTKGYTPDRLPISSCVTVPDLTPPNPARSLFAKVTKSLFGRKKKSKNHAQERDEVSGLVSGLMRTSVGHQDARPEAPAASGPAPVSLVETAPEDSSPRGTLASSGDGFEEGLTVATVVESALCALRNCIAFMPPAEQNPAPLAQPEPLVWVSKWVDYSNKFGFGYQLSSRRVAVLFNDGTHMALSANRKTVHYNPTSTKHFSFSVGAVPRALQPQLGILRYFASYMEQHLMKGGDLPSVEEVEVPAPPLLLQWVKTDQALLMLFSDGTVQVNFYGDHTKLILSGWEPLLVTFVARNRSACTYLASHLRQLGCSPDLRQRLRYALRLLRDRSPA
Chain of GST-PLK1 (P53350 whole entry): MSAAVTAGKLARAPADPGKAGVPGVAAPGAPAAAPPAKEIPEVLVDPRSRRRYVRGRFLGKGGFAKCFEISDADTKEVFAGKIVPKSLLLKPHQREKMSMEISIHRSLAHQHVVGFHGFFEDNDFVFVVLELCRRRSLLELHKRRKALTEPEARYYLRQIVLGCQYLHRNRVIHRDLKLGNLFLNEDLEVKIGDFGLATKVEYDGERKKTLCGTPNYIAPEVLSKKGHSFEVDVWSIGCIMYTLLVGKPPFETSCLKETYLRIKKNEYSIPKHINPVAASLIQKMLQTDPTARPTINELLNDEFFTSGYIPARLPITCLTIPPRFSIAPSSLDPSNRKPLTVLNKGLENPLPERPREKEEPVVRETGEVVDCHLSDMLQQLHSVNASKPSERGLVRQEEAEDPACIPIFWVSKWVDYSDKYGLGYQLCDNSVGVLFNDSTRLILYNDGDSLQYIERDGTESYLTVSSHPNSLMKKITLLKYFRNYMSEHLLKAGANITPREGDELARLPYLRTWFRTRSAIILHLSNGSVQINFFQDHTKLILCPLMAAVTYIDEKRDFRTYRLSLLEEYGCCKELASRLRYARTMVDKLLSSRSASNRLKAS

Take `CC[C@@]12CCCN1c1nc(-n3ccnc3-c3ccncc3)ncc1N(C)C2=O` [Example 101, (S)-6a-ethyl-5-methyl-2-(2-(pyridin-4-yl)-1H-imidazol-1-yl)-6a,7,8,9-tetrahydropyrrolo[2,1-h]pteridin-6(5H)-one]: the IC50 (in general, the concentration needed to halve the response being measured) on GST-PLK3 (setting [1]) is 10 to 50 µM; on GST-PLK2, below 1 µM; on GST-PLK1 it was 10 to 50 µM.
As to `CC[C@@H]1C(=O)N(C)c2cnc(-n3ccnc3)nc2N1C1CCOC1` (single isomer, unassigned) [Example 299], the IC50 on GST-PLK3 (setting [1]) is 10 to 50 µM; at GST-PLK2, below 1 µM; on GST-PLK1, 1 to 10 µM.
For `CC[C@@H]1C(=O)N(C)c2cnc(-n3nccc3-c3ccccc3)nc2N1C(C)C` [Example 188, (R)-7-ethyl-8-isopropyl-5-methyl-2-(5-phenyl-1H-pyrazol-1-yl)-7,8-dihydropteridin-6(5H)-one], the IC50 is 1 to 10 µM at GST-PLK3 (setting [1]), below 1 µM on GST-PLK2 and below 1 µM at GST-PLK1.
As to `CC[C@@H]1C(=O)N(C)c2cnc(-n3ccc(C(=O)NC)n3)nc2N1C1CCCC1` [Example 58, (R)-1-(8-cyclopentyl-7-ethyl-5-methyl-6-oxo-5,6,7,8-tetrahydropteridin-2-yl)-N-methyl-1H-pyrazole-3-carboxamide], the IC50 at GST-PLK3 (setting [1]) was above 50 µM; on GST-PLK2 it was below 1 µM; on GST-PLK1 it was 1 to 10 µM.
Take `CC[C@@H]1C(=O)N(C)c2cnc(-n3ccnc3-c3cncnc3)nc2N1C(C)C` [Example 149, (R)-7-ethyl-8-isopropyl-5-methyl-2-(2-(pyrimidin-5-yl)-1H-imidazol-1-yl)-7,8-dihydropteridin-6(5H)-one]: the IC50 on GST-PLK3 (setting [1]) was 10 to 50 µM; on GST-PLK2 it was below 1 µM; on GST-PLK1, 10 to 50 µM.
Consider `CC[C@@]12COCCN1c1nc(-c3cccnc3-c3ccccc3)ncc1N(C)C2=O` [Example 403, (S)-6a-ethyl-5-methyl-2-(2-phenylpyridin-3-yl)-6a,7,9,10-tetrahydro-[1,4]oxazino[3,4-h]pteridin-6(5H)-one], for which the IC50 at GST-PLK3 (setting [1]) is 1 to 10 µM; on GST-PLK2, below 1 µM; at GST-PLK1, 10 to 50 µM.
Regarding `CC[C@@H]1C(=O)N(C)c2cnc(-n3ncnc3-c3ccccc3)nc2N1C1CCCC1` [Example 135, (R)-8-cyclopentyl-7-ethyl-5-methyl-2-(5-phenyl-1H-1,2,4-triazol-1-yl)-7,8-dihydropteridin-6(5H)-one], the IC50 on GST-PLK3 (setting [1]), at GST-PLK2 and at GST-PLK1 was below 1 µM throughout.
On to `CC[C@@H]1C(=O)N(C)c2cnc(-c3ccncc3)nc2N1C1CCC1` [Example 109, (R)-8-cyclobutyl-7-ethyl-5-methyl-2-(pyridin-4-yl)-7,8-dihydropteridin-6(5H)-one], for which the IC50 at GST-PLK3 (setting [1]) was 10 to 50 µM; on GST-PLK2, below 1 µM; on GST-PLK1, 1 to 10 µM.
Regarding `CC[C@]12COCCN1c1nc(-n3ccnc3-c3ccc(F)cn3)ncc1N(C)C2=O` [Example 381, (R)-6a-ethyl-2-(2-(5-fluoropyridin-2-yl)-1H-imidazol-1-yl)-5-methyl-6a,7,9,10-tetrahydro-[1,4]oxazino[3,4-h]pteridin-6(5H)-one], the IC50 at GST-PLK3 (setting [1]), at GST-PLK2 and at GST-PLK1 was above 50 µM in each case.
On to `CCC12CN(C)CCN1c1nc(-n3ccnc3-c3ccccc3)ncc1N(C)C2=O` (racemic) [Example 371, 6a-ethyl-5,8-dimethyl-2-(2-phenyl-1H-imidazol-1-yl)-7,8,9,10-tetrahydro-5H-pyrazino[2,1-h]pteridin-6(6aH)-one], for which the values for the IC50 on GST-PLK3 (setting [1]), on GST-PLK2 and at GST-PLK1 were above 50 µM, below 1 µM and above 50 µM, respectively.
For `CC[C@@H]1C(=O)N(C)c2cnc(-n3ccnc3-c3ncccn3)nc2N1C1CCC1` [Example 183, (R)-8-cyclobutyl-7-ethyl-5-methyl-2-(2-(pyrimidin-2-yl)-1H-imidazol-1-yl)-7,8-dihydropteridin-6(5H)-one], the results for the IC50 on GST-PLK3 (setting [1]), at GST-PLK2 and at GST-PLK1 were 10 to 50 µM, below 1 µM and 1 to 10 µM, respectively.
As for `CC[C@@H]1C(=O)N(C)c2cnc(-n3ccnc3)nc2N1C(C)C` [Example 22, (R)-7-ethyl-2-(1H-imidazol-1-yl)-8-isopropyl-5-methyl-7,8-dihydropteridin-6(5H)-one], the IC50 on GST-PLK3 (setting [1]) was above 50 µM; at GST-PLK2, below 1 µM; on GST-PLK1 it was 1 to 10 µM.
On to `CC[C@@]12COCCN1c1nc(-n3ccnc3-c3nccs3)ncc1N(C)C2=O` [Example 387, (S)-6a-ethyl-5-methyl-2-(2-(thiazol-2-yl)-1H-imidazol-1-yl)-6a,7,9,10-tetrahydro-[1,4]oxazino[3,4-h]pteridin-6(5H)-one], for which the values for the IC50 at GST-PLK3 (setting [1]), on GST-PLK2 and at GST-PLK1 were above 50 µM, below 1 µM and above 50 µM, respectively. Besides, on GST-PLK2, the “PLK2 activity relative to the opposite enantiomer / other isomer” value is reported as “more active compound”.
With `CC[C@]12COCCN1c1nc(-c3cnoc3-c3ccccc3)ncc1N(C)C2=O` [Example 414, (R)-6a-ethyl-5-methyl-2-(5-phenylisoxazol-4-yl)-6a,7,9,10-tetrahydro-[1,4]oxazino[3,4-h]pteridin-6(5H)-one], the IC50 on GST-PLK3 (setting [1]), at GST-PLK2 and on GST-PLK1 was above 50 µM throughout.
With `CC[C@]12COCCN1c1nc(-c3cccnc3-c3ccccc3)ncc1N(C)C2=O` [Example 404], the IC50 on GST-PLK3 (setting [1]), at GST-PLK2 and on GST-PLK1 was above 50 µM in each case.
Consider `CC[C@@H]1C(=O)N(C)c2cnc(-c3cnoc3-c3ccccc3)nc2N1C1CCCC1` [Example 133, (R)-8-cyclopentyl-7-ethyl-5-methyl-2-(5-phenylisoxazol-4-yl)-7,8-dihydropteridin-6(5H)-one], for which the IC50 on GST-PLK3 (setting [1]), on GST-PLK2 and on GST-PLK1 was below 1 µM throughout.
As to `CC[C@@]12CCCN1c1nc(-n3ccnc3-c3cnccn3)ncc1N(C)C2=O` [Example 144, (S)-6a-ethyl-5-methyl-2-(2-(pyrazin-2-yl)-1H-imidazol-1-yl)-6a,7,8,9-tetrahydropyrrolo[2,1-h]pteridin-6(5H)-one], the values for the IC50 on GST-PLK3 (setting [1]), on GST-PLK2 and on GST-PLK1 were above 50 µM, 1 to 10 µM and above 50 µM, respectively.
For `CC[C@@H]1C(=O)N(C)c2cnc(-n3ccnc3-c3ccc(F)cc3)nc2N1C1CCC(F)(F)C1` (stereo partly shown) [Example 242], the IC50 at GST-PLK3 (setting [1]) fell in the range of 1 to 10 µM.
Turning to `CC[C@@]12COCCN1c1nc(-n3ccnc3-c3ccccc3)ncc1NC2=O` [Example 418, (S)-6a-ethyl-2-(2-phenyl-1H-imidazol-1-yl)-6a,7,9,10-tetrahydro-[1,4]oxazino[3,4-h]pteridin-6(5H)-one], at GST-PLK2, the “PLK2 activity relative to the opposite enantiomer / other isomer” value is “more active compound”.
With `CC[C@@H]1C(=O)N(C)c2cnc(-n3ccc4ccccc43)nc2N1C1CCCC1` [Example 385], on GST-PLK3 (setting [1]), the IC50 was above 50 µM.
For `CC[C@@]12CCCN1c1nc(-n3ccnc3-c3cccc(Br)c3)ncc1N(C)C2=O` [Example 252], the IC50 on GST-PLK2 is below 1 µM.
As for `CC[C@@H]1C(=O)N(C)c2cnc(-c3cc[n+]([O-])cc3)nc2N1C1CCCC1` [Example 13, (R)-4-(8-cyclopentyl-7-ethyl-5-methyl-6-oxo-5,6,7,8-tetrahydropteridin-2-yl)pyridine 1-oxide], the IC50 at GST-PLK2 and at GST-PLK1 was 1 to 10 µM in each case.
On to `CC[C@@H]1C(=O)N(C)c2cnc(-n3ccnc3-c3ccccc3)nc2N1C1CCOC1` (stereo partly shown) [Example 203], for which the IC50 on GST-PLK3 (setting [1]) lay within 1 to 10 µM.
`CC[C@@H]1C(=O)N(C)c2cnc(-n3cc(C(=O)NC)cn3)nc2N1C1CCCC1` [Example 40, (R)-1-(8-cyclopentyl-7-ethyl-5-methyl-6-oxo-5,6,7,8-tetrahydropteridin-2-yl)-N-methyl-1H-pyrazole-4-carboxamide]: the figures for the IC50 on GST-PLK3 (setting [1]) and at GST-PLK1 were 10 to 50 µM and below 1 µM, respectively.
On to `CN1C(=O)C(CC(F)(F)F)N(CCC(F)(F)F)c2nc(-n3ccnc3-c3ccc(F)cc3)ncc21` (stereo not shown) [Example 255], for which, at GST-PLK3 (setting [1]), the IC50 fell in the range of 10 to 50 µM.
On to `CC[C@@H]1C(=O)N(C)c2cnc(-c3cn[nH]c3-c3nccs3)nc2N1C1CCOCC1` [Example 349], for which the IC50 at GST-PLK3 (setting [1]) was below 1 µM.
`CC[C@@H]1C(=O)N(C)c2cnc(-n3ccnc3-c3ccccc3)nc2N1C1CCOC1` (stereo partly shown) [Example 182]: at GST-PLK3 (setting [1]), the IC50 was below 1 µM.
Consider `CC[C@@H]1C(=O)N(C)c2cnc(N3CCN=C3c3ccccc3)nc2N1C(C)C` [Example 246, (R)-7-ethyl-8-isopropyl-5-methyl-2-(2-phenyl-4,5-dihydro-1H-imidazol-1-yl)-7,8-dihydropteridin-6(5H)-one], for which the IC50 on GST-PLK3 lay in the range of 1 to 10 µM.
Take `CC[C@@H]1C(=O)N(C)c2cnc(-n3ccnc3-c3ccc(F)cc3)nc2N1C1CC(F)(F)C1` [Example 247]: on GST-PLK3 (setting [1]), the IC50 was 10 to 50 µM.
Regarding `CCC1C(=O)N(C)c2cnc(-n3ccnc3-c3ccc(F)cc3)nc2N1c1ccc(F)cc1` (stereo not shown) [Example 324], the IC50 on GST-PLK3 (setting [1]) was 1 to 10 µM.
On to `CC[C@@H]1C(=O)N(C)c2cnc(-c3ccnc(O)c3)nc2N1C1CCCC1` [Example 14, (R)-8-cyclopentyl-7-ethyl-2-(2-hydroxypyridin-4-yl)-5-methyl-7,8-dihydropteridin-6(5H)-one], for which the IC50 at GST-PLK2 and on GST-PLK1 was below 1 µM each time.
For `CC[C@@H]1C(=O)N(C)c2cnc(-n3ccnc3-c3ccccc3)nc2N1CCC(F)(F)F` [Example 190], on GST-PLK3 (setting [1]), the IC50 lay within 1 to 10 µM.
On the same count and under the same terms, the figure for `CC[C@@H]1C(=O)N(C)c2cnc(-n3ccnc3-c3ccc(F)cc3)nc2N1CCC(F)(F)F` [Example 233] is 10 to 50 µM.
Turning to `CC[C@@H]1C(=O)N(C)c2cnc(-c3cn[nH]c3)nc2N1C1CCCC1` [Example 7, (R)-8-cyclopentyl-7-ethyl-5-methyl-2-(1H-pyrazol-4-yl)-7,8-dihydropteridin-6(5H)-one], the IC50 on GST-PLK2 and at GST-PLK1 was below 1 µM each time.
